Assays:
[1] = system: resistant variant (45I,76F strain)
From the text: (§1) By way of PCR-supported mutagenesis and cloning, HIV-1 protease mutants are generated that are based on the infectious clone pNL4-3 (freely available via the "NIH AIDS reference and reagent program", the original reference is A. Adachi et al. J. Virol (1986) 59, 284-91--but it can, of course, be any other HIV clone, or even clinical material, provided that comparability is ensured). […] The cloned fragments are, for example, only 500 base pairs in length, all of the remainder being unchanged. By using mutations in always the same clone, direct comparability is ensured, which would rot be the case in a direct comparison of clinical samples or of different HIV clones.
(§2) That system is used as a transient DNA transfection system for tests:
(§3) Instead of the strains mentioned, there may be used any human T4-positive cells, such as the HeLa T4 cells, deposited under that name by Richard Axel and Paul Maddon in "NIH AIDS reference and reagent program" and obtainable via that source.

[2] = system: 46I/47V/50V (VX478) strain; experiment: Transient DNA transfection assay, strain 46I/47V/50V (VX478); format: cell-based, HIV-1; settings: 1 nM
From the text: as §1, §2, §3

In the case of `COC(=O)N[C@H](C(=O)N[C@@H](Cc1ccccc1)[C@@H](O)CN(Cc1ccc(-c2ccccn2)cc1)NC(=O)[C@@H](NC(=O)OC)C(C)(C)C)C(C)(C)C` [Example 46, 1-[4-(Pyridin-2-yl)-phenyl]-4(S)-hydroxy-5(S)-2,5-bis[N-(N-methoxycarbonyl-(L)-tert-leucyl)amino]-6-phenyl-2-azahexane], the “activity against a resistant variant (45I,76F strain) compared with saquinavir, indinavir, ritonavir” value [1] is reported as “comparable with saquinavir and better than that of indinavir (Merck & Co., Inc., see below) or ritonavir” and the “activity against strain 46I/47V/50V (VX478) compared with saquinavir, ritonavir and indinavir” value [2] is reported as “more potent (not quantified) than that of saquinavir, ritonavir and indinavir”.
